Patent US20060287316A1, “METHOD FOR IMPROVING PHARMACOKINETICS OF PROTEASE INHIBITORS AND PROTEASE INHIBITOR PRECURSORS” (priority 2005, published 2006)

Tests used:
[1] = Partition coefficient (LogP), octanol / phosphate buffer; format: physicochemical; details: octanol / phosphate buffer pH 7.4
Description: The concentration of the compounds in the phases was detected by LC-MS.

[2] = Plasma concentration after single oral dose in rats (in vivo cleavage of the phosphate group); parameters: species or system male Sprague-Dawley rats; details: 50 mg/Kg po, vehicle Mix, 3 rats
Procedure: To assess the extent of in vivo cleavage of the phosphate group from the putative compounds, PL-100, PL-462 (based on PL-100), PL-337 and PL-515 (based on PL-337) compounds were administered po (per os, (i.e., by mouth)) (50 mg/kg) to male Sprague-Dawley rats and their plasma concentration measured at different time intervals post-administration.
All test articles (PL-100, PL-462, PL-337 and PL-515) were prepared in different vehicle at the final concentration of 25 mg/mL. The vehicle composition is as follows: (1) 20% ethanol; 50% propylene glycol; 0.05% w/v Tween 20 and water (Mix); (2) PBS buffer (PBS).
Test articles were administered to male Sprague-Dawley rats at a single oral dose of 50 mg/kg. Each article was tested in three rats. Blood samples (0.2-0.3 mL) were collected at the post-dose time of 10, 20, 40, 60, 120, 180 and 360 minutes. The harvested blood was centrifuged to isolate plasma. The resulting plasma was separated and stored at −70° C.
Plasma samples together with standards and quality control samples were treated to precipitate proteins, then analyzed by HPLC-MS, for the presence of PL-462, PL-100, PL-515 and PL-337.

- logP [1]: 3.8
- AUC [2]: 1.180 ± 0.196 μg/hr * ml
- Cmax ([2]; male, Sprague-Dawley, rat, plasma): 681 ± 131 nM
- Tmax ([2]; male, Sprague-Dawley, rat, plasma, read-out: Tmax (converted)): 1 h
Compound: COC(=O)N[C@H](C(=O)NCCCC[C@@H](CO)N(CC(C)C)S(=O)(=O)c1ccc(N)c(F)c1)C(c1ccccc1)c1ccccc1 [PL-337, (1-{5-[(4-amino-3-fluoro-benzenesulfonyl)-isobutyl-amino]-6-hydroxy-hexylcarbamoyl}-2,2-diphenyl-ethyl)-carbamic acid methyl ester]
